The record followed here is US8895744B2, “Alfa-carboline inhibitors of NPM-ALK, RET, and Bcr-Abl” (Universita' Degli Studi di Milano-Bicocca, priority 2008, dated 2014).

Structures are written as SMILES.

In assay [1] the target is T1, Recombinant Abl T315I protein (Homo sapiens, UniProt P00519, T315I).
T1 construct: made in house; host or cells: Sf9 cells (baculovirus)
The experiment in a line: Abl T315I mutant kinase inhibitory activity, ELISA-based in vitro kinase assay. To be noted: purified Abl T315I, 0.3 mM ATP. In kind it is biochemical. Put shortly: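 His-tagged human Abl T315I from Sf9 cells, preincubated 10 min at room temperature with inhibitor, then reacted on peptide-coated plates with 0.3 mM ATP, 1 mM MnCl2, 5 mM MgCl2 in 50 mM Tris pH 7.5. Phosphotyrosine detected by anti-pTyr/HRP ELISA at 450 nm; IC50 as 50% inhibition vs control.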
For orientation: In an ELISA, binding on a coated surface is turned into a signal by an enzyme label.

The next assay concerns the target T2, Recombinant Ret protein (Homo sapiens, UniProt P07949).
T2 construct: made in house; host or cells: Sf9 cells (baculovirus)
Briefly: RET kinase inhibitory activity, ELISA-based in vitro kinase assay. In kind it is biochemical. The conditions noted are these: purified Ret, 0.3 mM ATP. The procedure:
Recombinant ALK kinase was expressed in Sf9 insect cells using the pBlueBacHis2C baculovirus vector system and purified using an anion exchange Fast Flow Q-sepharose column (Amersham-Pharmacia Biotech) followed by HiTrap™-nickel affinity column (Amersham-Pharmacia Biotech). Purified ALK protein was used to screen inhibitors in the ELISA-based kinase assay. A Nunc Immuno 96 well plate was incubated overnight at 37° C. with coating solution (125 μL/well) containing ALK peptide substrate ([…]) (SEQ ID NO: 1) at various concentrations in PBS. Wells were then washed with 200 μL of wash buffer (PBS-Tween 0.05%) and left to dry for at least 2 h at 37° C. The kinase reaction was performed in the presence of 50 mM Tris pH 7.5, 5 mM MnCl2, 5 mM MgCl2, 0.3 mM ATP and purified rALK in a total volume of 100 μL/well at 30° C. for 15 min. For inhibitor testing the reaction mix was preincubated with the inhibitor or solvent control for 10 min at room temperature before transferring to the ELISA plate. After the reaction wells were washed 5 times with 200 μL of wash buffer. Phosphorylated peptide was detected using 100 μL/well of a mouse monoclonal anti-phosphotyrosine antibody (clone 4G10 Upstate Biotech Ltd) diluted 1:2000 in PBS+4% BSA. After 30 min incubation at room temperature the antibody was removed and wells were washed as described above. 100 μL of a secondary antibody (anti-mouse IgG, Horseradish Peroxidase linked whole antibody, Amersham Pharmacia Biotech) diluted 1:1000 in PBS+4% BSA was added to each well and the plate was incubated again for 30 min at room temperature before washing as above. The plate was developed using 100 μL/well TMB Substrate Solution (Endogen) and the reaction was stopped by adding an equiv.ual volume of H2SO4 0.36 M. Finally, the absorbance was read at 450 nm using an Ultrospec® 300 spectrophotometer (Amersham-Pharmacia Biotech). The concentration of the test solution showing 50% inhibition as compared with the control was expressed as IC50 (μM).
38. RET Kinase Inhibitory Activity
Method: ELISA-Based In Vitro Kinase Assay
Recombinant Ret protein was expressed in Sf9 cells using the pBlueBacHis2C baculovirus expression vector. Ret was purified using an anion exchange Fast Flow Q-sepharose column (Amersham-Pharmacia Biotech) followed by HiTrap™-nickel affinity column (Amersham-Pharmacia Biotech). Purified Ret was used in the ELISA-based kinase assay to screen inhibitors as described above. The kinase reaction was performed in the presence of 50 mM Tris pH 7.5, 1 mM MnCl2, 5 mM MgCl2, 0.3 mM ATP, peptide substrate ([…]) (SEQ ID NO: 1) and purified Ret. The concentration of the test solution showing 50% inhibition as compared with the control was expressed as IC50 (μM).

Assay [2] concerns parent untransformed BaF3 cells. The experiment in a line: Tritiated thymidine uptake cell proliferation assay, parental BaF3 (control). In kind it is cell-based. To be noted: Mus musculus, 3[H]-thymidine uptake, 72 h, medium with IL-3, read-out: BaF parental IC50. In a few lines:
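Control lines were parental BaF3 in IL-3-supplemented medium and ALK-, Abl- or RET-negative U937, seeded at 10 000 cells/well with serial inhibitor dilutions for 72 h at 37 °C. ³H-thymidine (1 μCi/well) was added for the final 16 h; IC50 (μM) is the concentration halving uptake versus DMSO.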

Assay [3] has as its target T3, BaF3 cells transformed with the oncogenic fusion protein NPM/ALK (Homo sapiens, UniProt Q9UM73).
T3 construct: fused on or other part: P06748 (Nucleophosmin)
The experiment in a line: Tritiated thymidine uptake cell proliferation assay, BaF3 NPM/ALK. It counts as cell-based. The conditions noted are these: 3[H]-thymidine uptake, 72 h; read-out: BaF NPM/ALK IC50. In a few lines:
(§1)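 Cells were seeded at 10 000/well with serial inhibitor dilutions or DMSO vehicle and incubated 72 h at 37 °C, with ^3[H]-thymidine (1 μCi/well) added for the final 16 h. Incorporation was read by β scintillation counting. IC50 (μM) is the concentration giving a 50% decrease in uptake versus controls.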

Assay [4] addresses BaF3 cells transformed with the oncogenic fusion protein bcr-abl (Homo sapiens, UniProt P00519). The experiment in a line: Tritiated thymidine uptake cell proliferation assay, BaF3 BCR/ABL. The conditions noted are these: 3[H]-thymidine uptake, 72 h; read-out: BaF BCR/ABL IC50. It counts as cell-based. The procedure: (§2) Inhibition of the Proliferation of Bcr/Abl Positive Cells
(§3) Method: Tritiated Thymidine Uptake Cell Proliferation Assay
(§4) The following procedure was used with parent untransformed BaF3 cells, BaF3 cells transformed with the oncogenic fusion protein bcr-abl, Abl-negative U937 cells, or Bcr-abl positive LAMA-84 cells. The parent untransformed BaF3 cells and Abl-negative U937 cells are used as controls. Cells were seeded in U-bottomed 96-well plates at 10 000 cells/well in a volume of 100 μL in supplemented medium. In the case of the parent untransformed BaF3 cells, the medium was supplemented with IL-3. Serial dilutions of inhibitors were added to the appropriate wells and volumes adjusted to 200 μL. Controls were treated with the equivalent volume of vehicle, DMSO, alone. Plates were incubated at 37° C. for 72 h. ^3[H]-thymidine (1 μCi/well) was added for the last 16 h of incubation. Cells were harvested on to paper filters and ^3[H]-thymidine incorporation was measured using a β scintillation counter (1430 MicroBeta, Wallac, Turku, Finland). The 50% inhibitory concentration (IC50) was defined as the concentration of inhibitor, expressed in micromolar, that gave a 50% decrease in ^3H-thymidine uptake compared with controls.

Assay [5] concerns NPM/ALK positive SUDHL-1 cells. Briefly: Tritiated thymidine uptake cell proliferation assay, SUDHL-1. It counts as cell-based. The conditions noted are these: 3[H]-thymidine uptake, 72 h. In a few lines:
as §1

The subject of assay [6] is Bcr-abl positive LAMA-84 cells. Briefly: Tritiated thymidine uptake cell proliferation assay, LAMA-84. In kind it is cell-based. To be noted: Homo sapiens, 3[H]-thymidine uptake, 72 h. The procedure: as §2, §3, §4
In a further assay the target is T4, Recombinant ALK kinase (Homo sapiens, UniProt Q9UM73).
T4 construct: made in house; host or cells: Sf9 insect cells (baculovirus)
T4 sequence (Q9UM73 19-1620): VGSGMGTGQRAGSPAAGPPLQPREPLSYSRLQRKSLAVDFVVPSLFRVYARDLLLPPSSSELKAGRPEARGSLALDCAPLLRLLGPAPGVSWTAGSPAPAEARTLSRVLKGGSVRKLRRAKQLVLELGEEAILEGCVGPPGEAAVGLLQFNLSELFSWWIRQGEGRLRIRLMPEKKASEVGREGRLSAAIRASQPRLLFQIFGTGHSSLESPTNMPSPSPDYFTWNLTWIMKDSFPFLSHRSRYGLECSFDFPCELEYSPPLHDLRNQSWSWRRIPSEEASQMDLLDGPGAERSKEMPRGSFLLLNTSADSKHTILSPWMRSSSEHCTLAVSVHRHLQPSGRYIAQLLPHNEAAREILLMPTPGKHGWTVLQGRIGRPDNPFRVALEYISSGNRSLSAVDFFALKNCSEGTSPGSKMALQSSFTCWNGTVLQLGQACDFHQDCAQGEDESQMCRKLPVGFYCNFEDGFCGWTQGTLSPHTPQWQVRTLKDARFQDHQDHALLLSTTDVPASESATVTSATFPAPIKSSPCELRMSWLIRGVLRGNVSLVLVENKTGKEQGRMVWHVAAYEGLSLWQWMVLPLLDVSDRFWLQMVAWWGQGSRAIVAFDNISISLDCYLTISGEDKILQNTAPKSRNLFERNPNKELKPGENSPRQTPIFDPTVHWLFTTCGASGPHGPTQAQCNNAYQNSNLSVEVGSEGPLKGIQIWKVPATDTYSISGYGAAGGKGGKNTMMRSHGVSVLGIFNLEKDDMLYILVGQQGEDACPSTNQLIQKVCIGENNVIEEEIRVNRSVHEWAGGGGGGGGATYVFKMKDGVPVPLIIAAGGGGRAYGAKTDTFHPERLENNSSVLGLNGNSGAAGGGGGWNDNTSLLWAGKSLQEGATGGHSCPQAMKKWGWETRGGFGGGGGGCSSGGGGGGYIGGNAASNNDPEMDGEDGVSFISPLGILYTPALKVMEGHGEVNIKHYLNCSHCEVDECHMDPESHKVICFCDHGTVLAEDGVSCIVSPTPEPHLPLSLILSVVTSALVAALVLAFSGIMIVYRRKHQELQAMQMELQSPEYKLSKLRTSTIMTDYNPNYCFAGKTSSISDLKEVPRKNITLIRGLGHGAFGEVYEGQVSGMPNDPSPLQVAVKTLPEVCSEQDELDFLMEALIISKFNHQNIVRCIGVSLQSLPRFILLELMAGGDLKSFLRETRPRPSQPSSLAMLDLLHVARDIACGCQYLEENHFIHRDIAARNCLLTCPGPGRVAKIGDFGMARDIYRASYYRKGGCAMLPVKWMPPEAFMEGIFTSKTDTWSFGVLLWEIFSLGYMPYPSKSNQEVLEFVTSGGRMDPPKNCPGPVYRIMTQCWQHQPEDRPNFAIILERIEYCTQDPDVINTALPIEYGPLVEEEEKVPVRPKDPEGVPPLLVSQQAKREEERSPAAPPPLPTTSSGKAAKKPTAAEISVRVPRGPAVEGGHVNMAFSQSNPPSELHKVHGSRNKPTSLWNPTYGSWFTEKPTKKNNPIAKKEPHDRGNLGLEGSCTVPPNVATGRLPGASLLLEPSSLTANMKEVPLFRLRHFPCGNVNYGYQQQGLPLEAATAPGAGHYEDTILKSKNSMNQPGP
The experiment in a line: ALK kinase inhibitory activity, ELISA-based in vitro kinase assay. In kind it is biochemical. The conditions noted are these: purified rALK, 0.3 mM ATP, read-out: ALK IC50. In a few lines:
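Sf9-expressed, purified recombinant ALK phosphorylated a plate-coated peptide substrate with 0.3 mM ATP, Mn2+/Mg2+, pH 7.5, 15 min at 30° C, after 10 min inhibitor preincubation. Phosphotyrosine was detected by anti-pTyr ELISA (TMB, A450); IC50 in μM is the concentration giving 50% inhibition relative to control.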

In assay [7] the target is T5, BaF3 cells transformed with the oncogenic fusion protein RET-PTC2 (Homo sapiens, UniProt P07949).
T5 construct: fused on or other part: P10644 (cAMP-dependent protein kinase type I-alpha regulatory subunit)
Briefly: Tritiated thymidine uptake cell proliferation assay, BaF3 RET/PTC. In kind it is cell-based. The conditions noted are these: 3[H]-thymidine uptake, 72 h; read-out: BaF RET/PTC IC50. The procedure: Inhibition of the Proliferation of RET-positive Cells
as §3
as §4, with “RET-PTC2,” for “bcr-abl, Abl-negative U937 cells,”, “RET-negative 11937” for “Bcr-abl positive LAMA-84”, “RET-negative” for “Abl-negative”, “^3[H]-thymidine” for “^3H-thymidine”

T3 sequence (Q9UM73 whole entry, change not shown, the tested form may be a part): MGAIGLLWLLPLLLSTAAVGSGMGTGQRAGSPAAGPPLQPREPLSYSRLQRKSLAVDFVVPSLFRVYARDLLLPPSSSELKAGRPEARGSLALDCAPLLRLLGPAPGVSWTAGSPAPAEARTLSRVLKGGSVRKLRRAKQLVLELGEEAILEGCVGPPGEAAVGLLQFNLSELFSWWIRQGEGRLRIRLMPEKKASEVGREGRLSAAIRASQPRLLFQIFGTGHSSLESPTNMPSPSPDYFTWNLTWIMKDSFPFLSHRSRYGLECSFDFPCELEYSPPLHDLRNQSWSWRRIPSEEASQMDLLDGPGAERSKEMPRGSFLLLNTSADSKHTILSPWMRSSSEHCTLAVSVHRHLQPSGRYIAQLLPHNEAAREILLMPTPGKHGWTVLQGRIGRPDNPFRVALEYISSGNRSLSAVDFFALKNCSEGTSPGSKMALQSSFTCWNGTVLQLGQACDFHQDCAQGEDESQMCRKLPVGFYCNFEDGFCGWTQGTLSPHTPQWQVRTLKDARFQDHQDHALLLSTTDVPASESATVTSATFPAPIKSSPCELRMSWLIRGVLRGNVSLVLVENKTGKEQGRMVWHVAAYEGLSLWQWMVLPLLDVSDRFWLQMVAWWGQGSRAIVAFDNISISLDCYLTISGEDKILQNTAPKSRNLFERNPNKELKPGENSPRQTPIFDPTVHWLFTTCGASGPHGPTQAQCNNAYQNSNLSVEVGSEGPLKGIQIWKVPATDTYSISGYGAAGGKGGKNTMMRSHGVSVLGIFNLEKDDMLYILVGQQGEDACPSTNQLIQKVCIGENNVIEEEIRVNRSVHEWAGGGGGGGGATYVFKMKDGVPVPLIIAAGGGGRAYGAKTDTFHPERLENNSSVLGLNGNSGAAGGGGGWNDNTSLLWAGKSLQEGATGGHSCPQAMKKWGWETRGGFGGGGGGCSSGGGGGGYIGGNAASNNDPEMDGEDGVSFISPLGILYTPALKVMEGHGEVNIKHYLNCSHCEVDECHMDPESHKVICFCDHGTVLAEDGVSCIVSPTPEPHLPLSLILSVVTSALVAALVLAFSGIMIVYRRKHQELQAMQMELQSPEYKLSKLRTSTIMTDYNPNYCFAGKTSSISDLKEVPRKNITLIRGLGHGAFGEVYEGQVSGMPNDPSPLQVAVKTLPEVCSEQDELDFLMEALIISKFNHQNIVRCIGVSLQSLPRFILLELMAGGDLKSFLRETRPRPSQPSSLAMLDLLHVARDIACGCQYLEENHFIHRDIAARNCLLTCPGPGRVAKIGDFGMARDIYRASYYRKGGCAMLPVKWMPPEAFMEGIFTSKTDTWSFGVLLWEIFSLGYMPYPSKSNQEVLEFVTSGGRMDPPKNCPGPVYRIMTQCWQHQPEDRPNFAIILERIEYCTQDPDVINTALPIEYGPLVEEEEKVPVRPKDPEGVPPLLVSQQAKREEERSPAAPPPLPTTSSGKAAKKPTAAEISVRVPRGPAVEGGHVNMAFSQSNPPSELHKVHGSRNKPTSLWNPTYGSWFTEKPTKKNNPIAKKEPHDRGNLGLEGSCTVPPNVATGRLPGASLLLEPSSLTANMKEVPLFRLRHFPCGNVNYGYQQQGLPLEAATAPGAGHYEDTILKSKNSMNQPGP
T2 sequence (P07949 29-1114): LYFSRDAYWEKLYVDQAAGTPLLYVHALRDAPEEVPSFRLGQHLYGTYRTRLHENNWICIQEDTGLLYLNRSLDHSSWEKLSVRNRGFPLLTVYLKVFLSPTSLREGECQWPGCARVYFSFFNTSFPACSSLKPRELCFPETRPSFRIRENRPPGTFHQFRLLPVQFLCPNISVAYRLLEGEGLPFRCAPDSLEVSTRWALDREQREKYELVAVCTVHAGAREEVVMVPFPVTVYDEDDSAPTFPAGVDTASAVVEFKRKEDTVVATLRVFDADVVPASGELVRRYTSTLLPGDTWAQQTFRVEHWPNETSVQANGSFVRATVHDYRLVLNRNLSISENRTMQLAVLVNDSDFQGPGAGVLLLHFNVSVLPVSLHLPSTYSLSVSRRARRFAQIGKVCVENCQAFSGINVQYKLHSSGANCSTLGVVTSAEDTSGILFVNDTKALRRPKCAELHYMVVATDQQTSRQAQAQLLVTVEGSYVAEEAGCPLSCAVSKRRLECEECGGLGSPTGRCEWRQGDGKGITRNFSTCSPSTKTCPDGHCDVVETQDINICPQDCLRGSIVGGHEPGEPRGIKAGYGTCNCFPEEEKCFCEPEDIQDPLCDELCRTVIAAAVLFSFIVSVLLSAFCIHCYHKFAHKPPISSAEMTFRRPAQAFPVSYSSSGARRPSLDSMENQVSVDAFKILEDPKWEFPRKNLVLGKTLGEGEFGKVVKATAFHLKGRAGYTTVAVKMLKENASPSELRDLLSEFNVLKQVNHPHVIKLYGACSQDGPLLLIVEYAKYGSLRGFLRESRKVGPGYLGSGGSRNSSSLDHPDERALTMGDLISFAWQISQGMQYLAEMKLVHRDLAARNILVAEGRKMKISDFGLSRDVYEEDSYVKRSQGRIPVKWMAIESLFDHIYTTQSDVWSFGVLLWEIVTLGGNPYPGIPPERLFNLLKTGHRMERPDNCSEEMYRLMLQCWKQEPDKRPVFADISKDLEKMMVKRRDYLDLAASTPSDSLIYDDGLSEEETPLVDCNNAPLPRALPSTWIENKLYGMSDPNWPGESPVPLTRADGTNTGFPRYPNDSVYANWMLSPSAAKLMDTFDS

The term IC50 denotes the concentration that inhibits the measured activity by half. As for `COc1ccc(-c2ccc3[nH]c4ncccc4c3c2)cc1` [R268], the IC50 was 3.6 ± 0.19 µM in assay [1], 3.3 ± 1.5 µM on Recombinant Ret protein, above 25 µM in assay [2] and 0.6 µM in [5]. Besides, the GI50 in assay [3] and in assay [4] was above 25 µM each time.

`COc1ccc(CNC(=O)CCC(=O)c2ccc3[nH]c4ncc(Cl)cc4c3c2)cc1` [R304, 4-(3-Chloro-9H-pyrido[2,3-b]indol-6-yl)-N-(4-methoxybenzyl)-4-oxobutyramide]: the IC50 turned out to be 5 µM in assay [1], 19 ± 7 µM in assay [2], 8.4 µM in assay [5] and 1.6 µM in [6]. In addition, the GI50 in [3] came to 2.6 ± 1 µM.

Regarding `CN(C)CCSCC(=O)c1ccc2[nH]c3ncccc3c2c1` [R263], the IC50 is above 100 µM at Recombinant ALK kinase; above 100 µM in [1]; above 100 µM at Recombinant Ret protein; above 25 µM in assay [2]; 13 µM in [5]. Besides, the GI50 in assay [3] and in assay [4] was above 25 µM throughout.

Consider `C(=C\c1cnc2[nH]c3ccc(-c4ccc(CN5CCOCC5)cc4)cc3c2c1)/c1ccccc1` [R314, 6-(4-(morpholin-4-yl)methylphenyl)-3-(2′-phenylethenyl)-9H-pyrido[2,3-b]indole], for which the IC50 in assay [1] is above 50 µM; in assay [5] it was 2.1 µM; in assay [6], 2.1 µM. For the same compound, in [3], the GI50 came out at 1.6 ± 0.1 µM.

As to `COc1ccc(-c2ccc3[nH]c4nc(-c5ccc(OC)cc5)ccc4c3c2)cc1` [R311, 2,6-di(4-methoxyphenyl)-9H-pyrido[2,3-b]indole], the IC50 in assay [1] was 8.3 µM; in assay [2], above 100 µM; in [5], 32 µM; in [6], 55 µM. Further, in [3], the GI50 turned out to be 15 ± 3 µM.

With `O=C(NCCc1ccc2[nH]c3ncc(Cl)cc3c2c1)c1ccccc1` [R265, N-(2-(3-chloro-9H-pyrido[2,3-b]indol-6-yl)ethyl)benzamide], the IC50 at Recombinant ALK kinase was 40 ± 1.9 µM; in [1], 54 ± 43 µM; at Recombinant Ret protein, 26 ± 4.7 µM; in [2], above 25 µM; in [5], above 25 µM. For the same compound, the GI50 in assay [3] and in [4] was above 25 µM each time.

In the case of `O=C(CSc1ccccc1)c1ccc2[nH]c3nc(Cl)ccc3c2c1` [R306, 1-(2-Chloro-9H-pyrido[2,3-b]indol-6-yl)-2-phenylsulfanylethanone], the IC50 on Recombinant ALK kinase was found to be 0.8 ± 0.3 µM; in assay [1], 3.5 ± 0.03 µM; at Recombinant Ret protein, 1.3 µM; in assay [2], 25 ± 3 µM; in assay [5], 5.7 µM; in assay [6], 1.4 µM. For the same compound, the GI50 in assay [3] is 7.3 ± 0.3 µM.

With `O=C(CBr)c1ccc2[nH]c3ncccc3c2c1` [R228], the results for the IC50 (in [1]; on Recombinant Ret protein; in [2]) were 13 ± 4.6 µM, 16 µM and 13 µM, respectively. Moreover, the GI50 in assay [3] turned out to be 8 µM; in assay [4] it was 18 µM; in assay [7], 11 µM.

Turning to `O=C(CSc1ccccn1)c1ccc2[nH]c3ncccc3c2c1` [R264], the IC50 was determined as 13 ± 0.58 µM on Recombinant ALK kinase; 49 ± 1.1 µM in [1]; 24 ± 6.1 µM at Recombinant Ret protein; 19 µM in assay [2]; 24 µM in assay [5]. The values for the GI50 in assay [3] and in assay [4] were 13 µM and 23 µM, respectively.

`O=[N+]([O-])/C=C/c1ccc2[nH]c3ncc(Cl)cc3c2c1` [R266, 3-chloro-6-(2′-nitrovinyl)-9H-pyrido[2,3-b]indole]: the IC50 at Recombinant ALK kinase was determined as 3.3 ± 0.4 µM; in assay [1] it was 9.8 ± 0.67 µM; at Recombinant Ret protein, 4.6 ± 0.39 µM; in [2], 3.4 µM; in assay [5] it was 0.81 µM. Also, the GI50 amounted to 3.4 µM in [3] and 2 µM in assay [4].

For the compound `CN1CCN(Cc2ccc(C(=O)Nc3nc(-c4ccc5[nH]c6ncccc6c5c4)cs3)cc2)CC1` [R222], the IC50 is 88 ± 4.3 µM on Recombinant ALK kinase, above 100 µM in assay [1], 8.8 ± 1.6 µM on Recombinant Ret protein and 1.5 µM in [2]. Also, the GI50 in assay [3] turned out to be 1.5 µM; in assay [4] it was 2.5 µM; in assay [7], 1.6 µM.
